In ChEMBL document CHEMBL4602612, “Design, synthesis and biological evaluation of mogrol derivatives as a novel class of AMPKα2β1γ1 activators” (Bioorg Med Chem Lett, 2020):

Molecular target: AMPK alpha2/beta1/gamma1 (Homo sapiens, UniProt P54619+P54646+Q9Y478)
Experiment: Allosteric activation of AMPK alpha2/beta1/gamma1 in human HepG2 cells by scintillation proximity assay
Type: cell-based

Sequence of AMPK alpha2/beta1/gamma1 (P54646 whole entry): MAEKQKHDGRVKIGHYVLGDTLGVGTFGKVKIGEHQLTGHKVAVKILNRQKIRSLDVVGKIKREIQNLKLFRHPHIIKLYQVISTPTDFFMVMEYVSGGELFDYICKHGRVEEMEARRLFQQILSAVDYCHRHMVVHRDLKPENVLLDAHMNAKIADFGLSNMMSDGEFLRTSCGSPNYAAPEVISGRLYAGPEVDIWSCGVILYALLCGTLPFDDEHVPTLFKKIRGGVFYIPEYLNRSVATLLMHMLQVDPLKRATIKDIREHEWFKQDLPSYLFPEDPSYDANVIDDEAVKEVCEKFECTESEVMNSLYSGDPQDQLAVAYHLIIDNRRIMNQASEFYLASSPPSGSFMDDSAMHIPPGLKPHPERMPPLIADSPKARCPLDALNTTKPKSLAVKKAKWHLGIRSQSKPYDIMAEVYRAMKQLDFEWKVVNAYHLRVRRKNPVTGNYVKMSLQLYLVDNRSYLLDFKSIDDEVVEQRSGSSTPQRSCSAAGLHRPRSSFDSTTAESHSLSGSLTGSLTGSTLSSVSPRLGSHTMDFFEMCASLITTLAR
Sequence of AMPK alpha2/beta1/gamma1 (P54619 whole entry): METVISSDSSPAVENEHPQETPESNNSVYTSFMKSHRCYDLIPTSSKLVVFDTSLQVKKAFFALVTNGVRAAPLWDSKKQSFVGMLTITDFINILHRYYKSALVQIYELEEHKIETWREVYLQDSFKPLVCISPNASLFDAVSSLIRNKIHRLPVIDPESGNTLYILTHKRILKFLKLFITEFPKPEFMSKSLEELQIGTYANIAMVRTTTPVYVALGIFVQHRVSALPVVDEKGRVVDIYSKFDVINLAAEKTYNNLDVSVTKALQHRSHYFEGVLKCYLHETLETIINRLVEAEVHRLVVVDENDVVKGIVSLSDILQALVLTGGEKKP
Sequence of AMPK alpha2/beta1/gamma1 (Q9Y478 whole entry): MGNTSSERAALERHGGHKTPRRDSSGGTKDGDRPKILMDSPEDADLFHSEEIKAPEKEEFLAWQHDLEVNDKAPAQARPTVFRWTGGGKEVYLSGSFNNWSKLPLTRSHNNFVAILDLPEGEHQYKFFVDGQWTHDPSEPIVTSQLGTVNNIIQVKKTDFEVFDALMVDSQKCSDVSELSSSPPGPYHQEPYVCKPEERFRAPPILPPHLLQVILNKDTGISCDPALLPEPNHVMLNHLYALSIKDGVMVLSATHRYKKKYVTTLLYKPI

EC50 [nM]	SMILES
500	C[C@H](CCCNCCN1CCNCC1)[C@H]1CC[C@@]2(C)[C@@H]3CC=C4[C@@H](CC[C@H](O)C4(C)C)[C@]3(C)[C@H](O)C[C@]12C
1400	C[C@H](CCCNC(C)(C)C)[C@H]1CC[C@@]2(C)[C@@H]3CC=C4[C@@H](CC[C@H](O)C4(C)C)[C@]3(C)[C@H](O)C[C@]12C
4100	C[C@H](CCCNC1CC1)[C@H]1CC[C@@]2(C)[C@@H]3CC=C4[C@@H](CC[C@H](O)C4(C)C)[C@]3(C)[C@H](O)C[C@]12C
1500	C[C@H](CCCNCc1ccccc1)[C@H]1CC[C@@]2(C)[C@@H]3CC=C4[C@@H](CC[C@H](O)C4(C)C)[C@]3(C)[C@H](O)C[C@]12C
140	CC(C)NCCC[C@@H](C)[C@H]1CC[C@@]2(C)[C@@H]3CC=C4[C@@H](CC[C@H](O)C4(C)C)[C@]3(C)[C@H](O)C[C@]12C
2000	C[C@H](CCCNCCc1ccccc1)[C@H]1CC[C@@]2(C)[C@@H]3CC=C4[C@@H](CC[C@H](O)C4(C)C)[C@]3(C)[C@H](O)C[C@]12C
500	COc1ccc(CCNCCC[C@@H](C)[C@H]2CC[C@@]3(C)[C@@H]4CC=C5[C@@H](CC[C@H](O)C5(C)C)[C@]4(C)[C@H](O)C[C@]23C)cc1OC
5000	CCNCCC[C@@H](C)[C@H]1CC[C@@]2(C)[C@@H]3CC=C4[C@@H](CC[C@H](O)C4(C)C)[C@]3(C)[C@H](O)C[C@]12C
1600	C[C@H](CCCNCc1ccccn1)[C@H]1CC[C@@]2(C)[C@@H]3CC=C4[C@@H](CC[C@H](O)C4(C)C)[C@]3(C)[C@H](O)C[C@]12C
1400	C[C@H](CCCNCCCO)[C@H]1CC[C@@]2(C)[C@@H]3CC=C4[C@@H](CC[C@H](O)C4(C)C)[C@]3(C)[C@H](O)C[C@]12C
600	C[C@H](CCCNCc1ccc(Cl)cc1)[C@H]1CC[C@@]2(C)[C@@H]3CC=C4[C@@H](CC[C@H](O)C4(C)C)[C@]3(C)[C@H](O)C[C@]12C
1700	C[C@H](NCCC[C@@H](C)[C@H]1CC[C@@]2(C)[C@@H]3CC=C4[C@@H](CC[C@H](O)C4(C)C)[C@]3(C)[C@H](O)C[C@]12C)c1ccccc1
150	CCCNCCC[C@@H](C)[C@H]1CC[C@@]2(C)[C@@H]3CC=C4[C@@H](CC[C@H](O)C4(C)C)[C@]3(C)[C@H](O)C[C@]12C
200	COc1ccc(CNCCC[C@@H](C)[C@H]2CC[C@@]3(C)[C@@H]4CC=C5[C@@H](CC[C@H](O)C5(C)C)[C@]4(C)[C@H](O)C[C@]23C)cc1OC
3500	C[C@H](CCCNCCCn1ccnc1)[C@H]1CC[C@@]2(C)[C@@H]3CC=C4[C@@H](CC[C@H](O)C4(C)C)[C@]3(C)[C@H](O)C[C@]12C
7400	CNCCC[C@@H](C)[C@H]1CC[C@@]2(C)[C@@H]3CC=C4[C@@H](CC[C@H](O)C4(C)C)[C@]3(C)[C@H](O)C[C@]12C
700	C[C@H](CCCNCc1cccnc1)[C@H]1CC[C@@]2(C)[C@@H]3CC=C4[C@@H](CC[C@H](O)C4(C)C)[C@]3(C)[C@H](O)C[C@]12C
4700	COc1ccc(NCCC[C@@H](C)[C@H]2CC[C@@]3(C)[C@@H]4CC=C5[C@@H](CC[C@H](O)C5(C)C)[C@]4(C)[C@H](O)C[C@]23C)cc1
1700	C[C@H](CCCNCCc1ccc([N+](=O)[O-])cc1)[C@H]1CC[C@@]2(C)[C@@H]3CC=C4[C@@H](CC[C@H](O)C4(C)C)[C@]3(C)[C@H](O)C[C@]12C
500	C[C@H](CCCNCc1ccncc1)[C@H]1CC[C@@]2(C)[C@@H]3CC=C4[C@@H](CC[C@H](O)C4(C)C)[C@]3(C)[C@H](O)C[C@]12C
1400	Nc1ncnc2c1ncn2[C@@H]1O[C@H](COP(=O)(O)O)[C@@H](O)[C@H]1O [ADENOSINE PHOSPHATE]
700	C[C@H](CCCNCc1ccc(F)cc1)[C@H]1CC[C@@]2(C)[C@@H]3CC=C4[C@@H](CC[C@H](O)C4(C)C)[C@]3(C)[C@H](O)C[C@]12C

SMILES	EC50 [nM]
C[C@H](CC[C@@H](O)C(C)(C)O)[C@H]1CC[C@@]2(C)[C@@H]3CC=C4[C@@H](CC[C@H](O)C4(C)C)[C@]3(C)[C@H](O)C[C@]12C [MOGROL]	3000

Molecular target: AMPK alpha2/beta1/gamma1 (Homo sapiens) (UniProt P54646+P54619+Q9Y478)
Experiment: Potency index, ratio of mogrol EC50 to test compound EC50 for allosteric activation of AMPK alpha2/beta1/gamma1 in human HepG2 cells by scintillation proximity assay
Type: cell-based

Sequence of AMPK alpha2/beta1/gamma1 (Homo sapiens) (P54619 whole entry partner): as the sequence (P54619 whole entry) above
Sequence of AMPK alpha2/beta1/gamma1 (Homo sapiens) (P54646 whole entry): as the sequence (P54646 whole entry) above
Sequence of AMPK alpha2/beta1/gamma1 (Homo sapiens) (Q9Y478 2-270 partner limits assumed): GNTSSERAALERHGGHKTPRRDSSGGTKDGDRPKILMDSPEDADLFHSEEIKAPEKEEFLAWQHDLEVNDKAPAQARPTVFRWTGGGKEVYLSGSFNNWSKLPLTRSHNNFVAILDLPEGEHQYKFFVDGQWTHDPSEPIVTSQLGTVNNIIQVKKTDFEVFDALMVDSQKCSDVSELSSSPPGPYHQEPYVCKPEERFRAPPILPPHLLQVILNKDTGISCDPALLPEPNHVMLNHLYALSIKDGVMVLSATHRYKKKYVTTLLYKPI

Ratio EC50	SMILES
20	CC(C)NCCC[C@@H](C)[C@H]1CC[C@@]2(C)[C@@H]3CC=C4[C@@H](CC[C@H](O)C4(C)C)[C@]3(C)[C@H](O)C[C@]12C
20	CCCNCCC[C@@H](C)[C@H]1CC[C@@]2(C)[C@@H]3CC=C4[C@@H](CC[C@H](O)C4(C)C)[C@]3(C)[C@H](O)C[C@]12C
